Experimental data published in US20100034836A1, “COMPOSITIONS AND METHODS FOR THE DIAGNOSIS AND ALLEVIATION OF TUMOR” (priority 2006, published 2010).

Key:
[1] = target: ΔTASK121-ER (Mus musculus, UniProt P19785, G525R); conditions: NIH 3T3 ΔTASK121-ER cells, minimal media, 0-2000 nM 4OHT for 24 hours
Excerpt: (§1) To identify genes that are regulated specifically in response to TASK121 activation and not as a result of full mitogenic stimulation, TASK121 was conditionally activated using the previously described estrogen receptor (ER) fusion protein system (Samuels et al., Mol Cell Biol 13:6241-52 (1993)). The catalytic domains of wild-type and oncogenic human TASK121 (denoted as ΔTASK121 and ΔTASK121^V600E, respectively) were fused to a variant of the murine ER hormone-binding domain in which a G525R mutation switches responsiveness from endogenous estrogen to a synthetic antagonist, 4-hydroxytamoxifen (4OHT) (Danielian, et al., Mol Endocrinol 7:232-40 (1993)). […] NIH 3T3 cells expressing ΔTASK121-ER, ΔTASK121^V600E-ER or empty vector were derived by retroviral infection and several independent clones were characterized to ensure against a clonal selection bias. To determine effective doses for inducing TASK121 kinase activity, ΔTASK121-ER and ΔTASK121^V600EER cells were cultured in minimal media and stimulated with 0-2000 nM 4OHT for 24 hours. […] Accumulation of ΔTASK121-ER and ΔTASK121^V600E-ER chimeric proteins and corresponding ERK1/2 phosphorylation were detected by immunoblotting.

[2] = target: ΔTASK121^V600E-ER (Mus musculus, UniProt P19785, G525R); conditions: NIH 3T3 ΔTASK121^V600E-ER cells, minimal media, 0-2000 nM 4OHT for 24 hours
Excerpt: as §1

[3] = tested on: ΔTASK121^V600E-ER cells; test: Morphological transformation of 3T3 cells upon 4OHT induction; format: cell-based; conditions: 200 nM 4OHT, within 24 hours
[4] = tested on: tumor; conditions: nude mouse tumor model (Teicher et al. 2002); cited from earlier work
[5] = tested on: MEK1/2
Experimental: Experiments were performed to identify the TASK121 downstream signals that are important for TASK122 expression. A375, 928-MEL, COL0205 and SK23-MEL cell lines were characterized for TASK121 and RAS activating mutations and TASK122 expression was measured by immunoblotting of these tumors cells when cultured in the presence or absence of the MEK1/2 inhibitor, U0126 (Favata et al., J Biol Chem 273:18623-32 (1998)).

[6] = tested on: endogenous TASK121; test: Dox-induced shRNA knockdown in A375 melanoma cells, immunoblotting; format: cell-based
Excerpt: The regulation of TASK122 by TASK 121 was directly addressed in an RNAi knockdown experiment. A375 melanoma cells, which contain an endogenous TASK121^V600E allele, were infected with a retrovirus expressing either TASK121 specific shRNAs or a control firefly Luciferase shRNA. Hairpin oligonucleotides used in this study are as follows:
In this system, the Tet repressor protein binds a modified polIII promoter thereby preventing shRNA expression. However, in the presence of a tetracycline analog, doxycycline (Dox), the Tet repressor protein is released from the promoter resulting in shRNA transcription and knockdown of endogenous TASK121 or luciferase expression.

[7] = 10 μM U0126, A375, 928-MEL, COL0205 and SK23-MEL cell lines

Chain of ΔTASK121^V600E-ER (P19785 315-551 G525R): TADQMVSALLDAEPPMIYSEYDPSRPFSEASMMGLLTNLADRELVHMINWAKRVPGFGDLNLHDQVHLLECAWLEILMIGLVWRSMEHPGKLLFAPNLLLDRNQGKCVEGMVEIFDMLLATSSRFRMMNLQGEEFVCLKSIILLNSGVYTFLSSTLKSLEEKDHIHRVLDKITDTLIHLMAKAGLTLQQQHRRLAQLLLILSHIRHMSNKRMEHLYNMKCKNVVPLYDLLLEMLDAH
Chain of ΔTASK121^V600E-ER (P15056 457-717 V600E partner limits assumed): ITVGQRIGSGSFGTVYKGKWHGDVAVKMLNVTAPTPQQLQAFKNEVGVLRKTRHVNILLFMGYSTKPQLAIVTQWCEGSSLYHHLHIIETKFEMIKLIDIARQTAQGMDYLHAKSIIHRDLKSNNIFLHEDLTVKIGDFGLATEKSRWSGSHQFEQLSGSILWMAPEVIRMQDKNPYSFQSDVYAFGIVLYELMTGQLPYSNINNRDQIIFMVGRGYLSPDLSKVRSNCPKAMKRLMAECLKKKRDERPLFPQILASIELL
Chain of ΔTASK121-ER (P19785 315-551 G525R limits assumed): as the sequence (P19785 315-551 G525R) above
Chain of ΔTASK121-ER (P15056 457-717 partner limits assumed): as the sequence (P15056 457-717 V600E partner limits assumed) above, with E144V counted along it

Molecule: 4-hydroxytamoxifen [4OHT]
- 4OHT concentration at which TASK121-mediated signaling was maximal [1]: 100 nM
- 4OHT concentration at which TASK121-mediated signaling was maximal [2]: 10 nM
- cell morphology [3]: refractile and spindle-shaped phenotype

Molecule: Cl.Cn1cc(C2=C(c3cn(C4CCN(Cc5ccccn5)CC4)c4ccccc34)C(=O)NC2=O)c2ccccc21 [317615-HCL]
- anti-tumor effect [4]: anti-tumor effect

Molecule: N#CC(=C(/N)Sc1ccccc1N)/C(C#N)=C(\N)Sc1ccccc1N [U0126]
- TASK122 expression ([5]; 10 μM U0126, inhibition of ERK1/2 phosphorylation): abolished
- ERK1/2 phosphorylation [5, 7]: decreased
- total ERK2 levels [5, 7]: unaffected

B1: TASK121 shRNA: hairpin oligonucleotides SEQ ID NO: 7 (sense) and SEQ ID NO: 8 (antisense), retrovirally expressed, Tet-regulated (nucleic acid)
sense: GATCCCCAGAATTGGATCTGGATCATTTCAAGAGAATGATCCAGATCCAATTCTTTTTTTGGAAA
antisense: AGCTTTTCCAAAAAAAGAATTGGATCTGGATCATTCTCTTGAAATGATCCAGATCCAATTCTGGG
modifications: the letters are possibly those of the target site
- TASK122 levels [6]: significant reduction
- phosphorylated ERK1/2 [6]: significant reduction
- total ERK2 levels [6]: remained unchanged

B2: Luciferase shRNA: control firefly Luciferase shRNA, SEQ ID NO: 9 (sense) and 10 (antisense) (nucleic acid)
sense: GATCCCCCTTACGCTGAGTACTTCGATTCAAGAGATCGAAGTACTCAGCGTAAGTTTTTTGGAAA
antisense: AGCTTTTCCAAAAAACTTACGCTGAGTACTTCGATCTCTTGAATCGAAGTACTCAGCGTAAGGGG
modifications: the letters are possibly those of the target site
- TASK122 levels [6]: did not alter
